Patent publication US11161819B2, “Substituted tetrahydroisoquinoline compounds useful as GPR120 agonists” (Merck Sharp & Dohme Corp., priority 2016, dated 2021)

Target: T1, human GPR120 (Homo sapiens, UniProt Q5NUL3)
T1 construct: expressed in transfected cells
T1 sequence (Q5NUL3 1-361): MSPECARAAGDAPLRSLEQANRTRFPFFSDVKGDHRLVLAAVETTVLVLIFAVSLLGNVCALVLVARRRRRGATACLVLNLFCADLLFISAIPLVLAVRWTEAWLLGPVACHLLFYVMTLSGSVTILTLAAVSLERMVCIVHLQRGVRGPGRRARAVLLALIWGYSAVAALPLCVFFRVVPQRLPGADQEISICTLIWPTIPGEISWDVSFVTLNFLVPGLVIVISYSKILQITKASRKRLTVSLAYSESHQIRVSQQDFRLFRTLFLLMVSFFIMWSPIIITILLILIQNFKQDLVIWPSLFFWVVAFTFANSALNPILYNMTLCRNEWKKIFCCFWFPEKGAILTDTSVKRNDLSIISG
Assay: Human GPR120 IP1 Assay (inositol phosphate turnover, CisBio IP-One kit)
Type: cell-based
Details: IP1 accumulation in CHO-K1 cells stably expressing the short form of human GPR120; 60 min compound incubation; 4-parameter fit; read-out: hGPR120 EC50
Method in brief: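 CHO-K1 cells stably expressing short-form human GPR120 were stimulated with compounds for 60 minutes at 37 degrees in stimulation buffer. IP1 accumulation measured by HTRF competitive immunoassay (665/620 nm ratio) against an IP1 standard curve, normalized to a reference compound; EC50 from 4-parameter fit.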

EC50 [nM] | Compound
2290 | O=C(O)CCc1ccc2c(c1)CCN(c1cc(OC3CCC3)cc(F)c1Cl)C2 [Example 45, 3-{2-[2-chloro-5-(cyclobutyloxy)-3-fluorophenyl]-1,2,3,4-tetrahydro-isoquinolin-6-yl}propanoic acid]
299 | O=C(O)[C@H]1C[C@@H]1c1ccc2c(c1F)CCN(c1cc(OC(F)(F)F)cc(Cl)c1F)C2 [Example 120, (1S,2S)-2-{2-[3-chloro-2-fluoro-5-(trifluoromethoxy)phenyl]-5-fluoro-1,2,3,4-tetrahydroisoquinolin-6-yl}cyclopropane-carboxylic acid]
533 | CC(CC(=O)O)c1ccc2c(c1)CCN(c1cc(OC(F)(F)F)ccc1F)C2 (stereo not drawn) [Example 7, 3-(2-(2-fluoro-5-(trifluoromethoxy)phenyl)-1,2,3,4-tetrahydroisoquinolin-6-yl)butanoic acid]
185 | CO[C@H]1C[C@H](Oc2cc(C#N)c(F)c(N3CCc4cc([C@@H]5C[C@H]5C(=O)O)ccc4C3)c2)C1 [Example 89, (1R,2R)-2-(2-{3-cyano-2-fluoro-5-[(trans-3-methoxycyclobutyl)oxy]phenyl}-1,2,3,4-tetrahydro-isoquinolin-6-yl)cyclopropane-carboxylic acid]
5880 | CC(Cc1ccc2c(c1F)CCN(c1cc(OC(F)(F)F)ccc1F)C2)C(=O)O (stereo not drawn) [Example 77, 3-{5-fluoro-2-[2-fluoro-5-(trifluoromethoxy)phenyl]-1,2,3,4-tetrahydro-isoquinolin-6-yl}-2-methyl-propanoic acid]
32 | O=C(O)[C@@H]1C[C@H]1c1ccc2c(c1F)CCN(c1cc(OC(F)(F)F)cc(Cl)c1F)C2 [Example 111, (1R,2R)-2-{2-[3-chloro-2-fluoro-5-(trifluoromethoxy)-phenyl]-5-fluoro-1,2,3,4-tetrahydroisoquinolin-6-yl}cyclo-propanecarboxylic acid]
209 | Cc1ccc(-n2nc(C)c(C#N)c2N2CCc3cc(C(C)CCCC(=O)O)ccc3C2)cc1 (single isomer, unassigned) [Example 140, 5-{2-[4-cyano-3-methyl-1-(4-methylphenyl)-1H-pyrazol-5-yl]-1,2,3,4-tetrahydroisoquinolin-6-yl} hexanoic acid]
22 | Cc1ccc(Oc2cc(C(F)F)c(F)c(N3CCc4cc(CCC(=O)O)ccc4C3)c2)nc1 [Example 16, 3-(2-{3-(difluoromethyl)-2-fluoro-5-[(5-methylpyridin-2-yl)oxy]phenyl}-1,2,3,4-tetrahydroiso-quinolin-6-yl)propanoic acid]
134 | O=C(O)CCc1cc2c(cc1F)CN(c1cc(OC(F)(F)F)ccc1F)CC2 [Example 30, 3-{7-fluoro-2-[2-fluoro-5-(trifluoromethoxy)phenyl]-1,2,3,4-tetrahydroisoquinolin-6-yl}-propanoic acid]
845 | N#Cc1ccc(OC2CCC2)cc1N1CCc2c(ccc(CCC(=O)O)c2F)C1 [Example 76, 3-{2-[2-cyano-5-(cyclobutyloxy)-phenyl]-5-fluoro-1,2,3,4-tetrahydro-isoquinolin-6-yl}propanoic acid]
5390 | 3-{2-[2-cyano-5-(cyclobutyloxy) phenyl]-1,2,3,4-tetrahydroiso- quinolin-6-yl}propanoic acid [Example 46]
20 | Cc1cnc(Oc2cc(C(F)F)c(F)c(N3CCc4cc(CCC(=O)O)ccc4C3)c2)s1 [Example 14, 3-(2-{3-(difluoromethyl)-2-fluoro-5-[(5-methyl-1,3-thiazol-2-yl)oxy]phenyl}-1,2,3,4-tetrahydro-isoquinolin-6-yl)propanoic acid]
41 | Cc1ccc(-n2nc(C)c(C#N)c2N2CCc3cc(CCCCC(=O)O)ccc3C2)cc1 [Example 134, 5-{2-[4-cyano-3-methyl-1-(4-methyl-phenyl)-1H-pyrazol-5-yl]-1,2,3,4-tetrahydroisoquinolin-6-yl}pentanoic acid]
27 | O=C(O)CCc1ccc2c(c1)CCN(c1cc(OC3CCC3)ccc1F)C2 [Example 19, 3-{2-[5-(cyclobutyloxy)-2-fluorophenyl]-1,2,3,4-tetrahydroiso-quinolin-6-yl}propanoic acid]
471 | CC(Cc1ccc2c(c1F)CCN(c1cc(OC3CCC3)cc(F)c1C#N)C2)C(=O)O (stereo not drawn) [Example 79, 3-(2-(2-cyano-5-cyclobutyloxy-3-fluorophenyl)-5-fluoro-1,2,3,4-tetra hydroisoquinolin-6-yl)-2-methyl-propanoic acid]
24 | N#Cc1cc(OC2CCC2)cc(N2CCc3cc(CCC(=O)O)ccc3C2)c1F [Example 12, 3-{2-[3-cyano-5-(cyclobutyloxy)-2-fluorophenyl]-1,2,3,4-tetra-hydroisoquinolin-6-yl}propanoic acid]
110 | O=C(O)[C@H]1C[C@@H]1c1ccc2c(c1)CCN(c1cc(OC(F)(F)F)ccc1F)C2 [Example 88, (1S,2S)-2-{2-[2-fluoro-5-(trifluoro-methoxy)phenyl]-1,2,3,4-tetra hydroisoquinolin-6-yl}cyclo-propane carboxylic acid]
223 | CC1c2ccc(CCC(=O)O)cc2CCN1c1cc(OC2CCC2)cc(F)c1F (stereo not drawn) [Example 49, 3-{2-[5-(cyclobutyloxy)-2,3-difluorophenyl]-1-methyl-1,2,3,4-tetrahydroisoquinolin-6-yl}-propanoic acid]
250 | O=C(O)[C@H]1C[C@@H]1c1ccc2c(c1)CCN(Cc1cc(OC(F)(F)F)ccc1F)C2 [Example 90, (1S,2S)-2-{2-[2-fluoro-5-(trifluoro-methoxy)benzyl]-1,2,3,4-tetra hydroisoquinolin-6-yl}cyclo-propane carboxylic acid]
348 | O=C(O)CCc1ccc2c(c1)CCN(Cc1c(-c3ccc(Cl)cc3)nsc1C(F)(F)F)C2 [Example 50, 3-(2-{[3-(4-chlorophenyl)-5-(trifluoromethyl)isothiazol-4-yl]methyl}-1,2,3,4-tetrahydroiso-quinolin-6-yl)propanoic acid]
20 | Cc1cnc(Oc2cc(Cl)c(F)c(N3CCc4cc(CCC(=O)O)ccc4C3)c2)s1 [Example 9]
169 | COc1cc(F)c(N2CCc3cc(CCC(=O)O)ccc3C2)cc1Oc1ccc(C)cn1 [Example 28, 3-(2-{2-fluoro-4-methoxy-5-[(5-methylpyridin-2-yl)oxy]phenyl}-1,2,3,4-tetrahydroisoquinolin-6-yl)propanoic acid]

Compound | EC50 [nM]
O=C(O)CCc1ccc2c(c1F)CCN(c1cc(OC3CCC3)ccc1F)C2 [Example 61, 3-(2-(5-cyclobutoxy-2-fluorophenyl)-5-fluoro-1,2,3,4-tetrahydro-isoquinolin-6-yl)-propanoic acid] | 28
COc1cc(OC2CCC2)nc(N2CCc3c(ccc(CCC(=O)O)c3F)C2)c1F [Example 148, 3-(2-(6-cyclobutoxy-3-fluoro-4-methoxypyridin-2-yl)-5-fluoro-1,2,3,4-tetra-hydroisoquinolin-6-yl)propanoic acid] | 9
